Source: patent publication US5972943A, “Pyridinecarboxamide derivatives” (Nisshin Flour Milling Co., Ltd., priority 1996, dated 1999)

What was measured:
[1] = Behavior suppressing action (general behaviors of mice); assay type: in vivo, ddY-strain mice; settings: 10 mg/kg, tail vein; for Behavioral suppression: observed over one hour
Experimental: The effect of the present pyridinecarboxamide derivatives on general behaviors of mice was studied.
Using ddY-strain mice of 7 weeks old, test substance was administered at 100μ11/10 sec to the tail vein and behavior of the animal was observed over one hour. After the administration, sedative animal was evaluated as sedated, while animal with behavioral suppression was evaluated as suppressed.

[2] = test system: lipid peroxidation in rat brain homogenate; assay: Inhibitory action on lipid peroxidation in rat brain homogenate; assay type: biochemical, Wistar-strain male rats; settings: 10^-4 M, 37° C., 15 minutes
Experimental: Inhibitory action on lipid peroxidation was studied in rat brain homogenate.
Wistar-strain male rats (weighing 230-300 g) were decapitated and the cerebrum was quickly excised. A 4 times volume of a solution of 50 mM phosphoric acid and […] NaCl (pH 7.4) was added and the mixture was homogenated and then centrifuged at 3000 rpm for 10 minutes. The supernatant thus obtained was prepared to give a protein level of 2 mg/ml.
Determination of lipid peroxide was carried out using TBA method (thiobarbituric acid). To the brain homogenate was added each of Compound 1, Compound 5, Compound 6, Compound 8, Compound 9, Compound 11 and Compound 14 as a test substance to give a final concentration of 10^-4 M, thereby initiating the reaction. After incubation at 37° C. for 15 minutes, the reaction was stopped in ice by adding a 35% perchloric acid solution. The reaction mixture was centrifuged at 4° C. and 1000 rpm for 5 minutes and to the supernatant thus obtained was added a 0.5% TBA solution. The mixture was boiled at 100° C. for 15 minutes. After cooling, absorbance was determined at 532 nm. 1,1,3,3-Tetraethoxypropane as a standard was subjected to the reaction in the same manner as above and an amount of lipid peroxide, that is, an amount of the malondialdehyde (MDA) produced was determined from the absorbance.
Inhibitory rate of lipid peroxidation was calculated according to the following equation: [formula]

hypoxic model of mice = assay: Cerebral protective action (anti-anoxia action), hypoxic model of mice, gasping duration after decapitation; assay type: in vivo, ddY-strain male mice; settings: 1.0 mg/kg i.v., 30 minutes before decapitation
Experimental: Cerebral protective action of the pyridinecarboxamide derivatives of this invention (an anti-anoxia action) were studied using a hypoxic model of mice.
Using ddY-strain male mice of 6 weeks old, the test substance of Compound 1, Compound 10 or Compound 11 was intravenously administered to the tail vein at the dose of 1.0 mg/kg. After 30 minutes from the administration, animals were decapitated to measure a gasping duration. This measurement was made by two persons who had not been informed of the test substances and the measured values were averaged to obtain the data. Also, the test was carried out in the same manner as described above except that Comparative Compound 1 was administered instead of the test substances.
The action of each substance will be shown in Table 2, with the gasping time of Comparative Compound 1 being defined as 1.
It is believed that grasping after decapitation is controlled by the respiratory center and, if the nervous functions are maintained by the respiratory center, the gasping duration would be prolonged. […] In view of the foregoing, the pyridinecarboxamide derivatives of this invention can prolong the gasping duration and then are useful as a cerebral protective agent.

[3] = Behavior suppressing activity (background statement); assay type: in vivo; settings: background / disclosure statement
[4] = test system: hypoxia and anoxia models; settings: Sakurai et al., Jpn. J. Pharmacol. 1993; cited from earlier work
[5] = test system: cerebral edema, ischemic reperfusion model using SHR-SP; assay: Anti-cerebral edema action (ischemic reperfusion model using SHR-SP); assay type: in vivo, male SHR-SP (spontaneous hypertensive rats); settings: 1 mg/kg i.v. twice; for Inhibitory rate of cerebral ischemia (cerebral edema): immediately after ischemia and immediately before reperfusion
Experimental: The pyridinecarboxamide derivatives of this invention were studied for the inhibitory action on cerebral edema with the model using SHR-SP (Spontaneous hypertensive rats which are vulnerable to cerebral hemorrhage).
Male SHR-SP of 15-17 weeks old were measured for the blood pressure one day before the testing and classified into groups. Both common carotid arteries were separated under pentobarbital anesthesia at 35 mg/kg and common carotid arteries were fastened by clamp to cause ischemia. After 2 hours, the clamp was removed from the common carotid artery to reperfuse. After a further 2 hours, the animal was decapitated and the cerebrum excised under ether anesthesia. The cerebrum was dried in an oven at 105° C. for 24 hours and the cerebral water content (%) was calculated. [formula]
Compound 1 and Comparative Compound 2 were intravenously administered twice, that is, immediately after the ischemia and immediately before the reperfusion at the dose of 1 mg/kg, respectively.

hippocampus CA1 cells = assay: Inhibitory rate of delayed neuronal death; assay type: in vivo, MON/Jms/Gbs-strain male jirds; settings: 0.5 mg/kg, carotid artery, immediately after ischemia; jirds; 7 days
Experimental: MON/Jms/Gbs-strain male jirds (weighing 60-80 g) were fixed at the dorsal position under 1.5-2.0% halothane anesthesia and the common carotid artery was isolated. Ischemia was caused by fastening the common carotid artery with clamp for 3 minutes and then reperfused. After 7 days, the brain was excised under ether anesthesia and fixed with 10% formalin for 2 days and then tissue slices of the hippocampus were prepared. The hippocampus CA1 cells were stained using HE staining and the survival rate of the CA1 cells was evaluated.
Compound 1 was administered to the carotid artery at the dose of 0.5 mg/kg immediately after ischemia. Using as a control the case wherein the drug was not administered, inhibitory rate was calculated according to the following equation: [formula]

[6] = test system: cerebral edema model using polyvinyl acetate; assay: Anti-cerebral edema action (obstructive cerebral ischemia model using polyvinyl acetate); assay type: in vivo, Wistar-strain male rats; settings: 1 mg/kg i.v., 5 minutes before polyvinyl acetate; rats
Experimental: Inhibiting action on cerebral ischemia was studied in an obstructive cerebral ischemia model using polyvinyl acetate.
The obstructive model was prepared as described below. (Hiroyoshi Nishi et al., Stroke 1989, 20:1236-1240)
Wistar-strain male rats weighing 200-350 g were used and fixed at the dorsal position under anesthesia of ether and then the left common carotid artery, internal carotid artery, external carotid artery were isolated. The external carotid artery was ligated, the pterylgopalatine artery was fastened with clamp and a cannula was inserted from the external carotid artery toward the branch between the internal carotid artery and the common carotid artery. 5 μl of a 3% polyvinyl acetate/52% ethanol solution in water was injected. After 30 seconds, the clamp was removed from the artery and then the wound was sutured. After 24 hours, animal was decapitated and the cerebrum was isolated, within 120 seconds from which wet weights of the left cerebrum and the right cerebrum were measured. The left and right cerebra were dried in an oven at 105° C. for 24 hours and then the dry weights were measured. A cerebral water content was calculated according to the following equation: [formula]
Compound 1 or Compound 9 was intravenously injected to the tail vein at the doses of 1.0 mg/kg and 3.0 mg/kg before 5 minutes from the administration of polyvinyl acetate.

[7] = known drug, background statement; cited from earlier work

Row | Structure (SMILES) | Behavioral suppression [1] | General behaviors (result in words) [1] | Inhibitory rate of lipid peroxidation [2] | Gasping duration (relative to Comparative Compound 1 defined as 1) (hypoxic model of mice) | other results
1 | CCN1CCN(c2ccc(C(=O)NCCCCCCCCCCCCCCO[N+](=O)[O-])cn2)CC1 [Compound 5, N-(14-Nitroxytetradecyl)-6-(4-ethyl-1-piperazinyl)pyridine-3-carboxamide] | Non | No abnormalities were observed in general behaviors | 69% |  | 
2 | CN1CCN(c2ccc(C(=O)NCCCCCCCCCCCO[N+](=O)[O-])cn2)CC1 [Comparative Compound 1, N-(11-nitroxy-1-undecanyl)-6-(4-methyl-1-piperazinyl)nicotinamide, reference compound] | Sedated | suppression of behavior being shown |  | 1 | Behavior suppressing activity [3]: observed to possess a behavior suppressing activity; Cerebral protective effect on the hypoxia and anoxia models [4]: could show a cerebral protective effect on the hypoxia and anoxia models
3 | O=C(NCCCCCCCCCCCCCCCCCCO[N+](=O)[O-])c1ccc(N2CCNCC2)nc1 [Compound 14, N-(18-Nitroxyoctadecyl)-6-(1-piperazinyl)pyridine-3-carboxamide] |  |  | 75% |  | 
4 | CN1CCN(c2ccc(C(=O)NCCCCCCCCCCCCCCO[N+](=O)[O-])cn2)CC1 [Compound 1, N-(14-Nitroxytetradecyl)-6-(4-methyl-1-piperazinyl)pyridine-3-carboxamide] | Non | No abnormalities were observed in general behaviors | 91% | 2.6 | Anti-cerebral edema activity (result in words) [5]: potent anti-cerebral edema activity; Inhibitory rate of cerebral ischemia (cerebral edema) [5]: 63%; Inhibitory rate (delayed neuronal death) (hippocampus CA1 cells): 47%; Inhibitory rate of cerebral edema [6]: 44.0%
5 | CN1CCN(c2ccc(C(=O)NCCCCCCCCCCCCO[N+](=O)[O-])cn2)CC1 [Comparative Compound 2, N-(12-nitroxy-1-dodecanyl)-6-(4-methyl-1-piperazinyl)nicotinamide, reference compound] |  |  |  |  | Anti-cerebral edema activity (result in words) [5]: made cerebral edema worse; Inhibitory rate of cerebral ischemia (cerebral edema) [5]: -90%
6 | CCN(CC)Cc1nccn1-c1ccc([N+](=O)[O-])cc1C(=O)c1ccccc1Cl [Nizofenone] |  |  |  |  | Behavior suppressing activity as a side-effect [7]: behavior suppressing activity
7 | CC(C)N1CCN(c2ccc(C(=O)NCCCCCCCCCCCCCCCCO[N+](=O)[O-])cn2)CC1 [Compound 11, N-(16-Nitroxyhexadecyl)-6-(4-isopropyl-1-piperazinyl)pyridine-3-carboxamide] | Non | No abnormalities were observed in general behaviors | 53% | 1.4 | 

Second part, led by results:

Row | Behavioral suppression [1] | Structure (SMILES) | General behaviors (result in words) [1] | Inhibitory rate of lipid peroxidation [2] | Gasping duration (relative to Comparative Compound 1 defined as 1) (hypoxic model of mice) | other results
8 | Non | O=C(NCCCCCCCCCCCCCCO[N+](=O)[O-])c1ccc(N2CCNCC2)nc1 [Compound 6, N-(14-Nitroxytetradecyl)-6-(1-piperazinyl)pyridine-3-carboxamide] | No abnormalities were observed in general behaviors | 59% |  | 
9 | Non | CN1CCN(c2ccc(C(=O)NCCCCCCCCCCCCCCCCCCO[N+](=O)[O-])cn2)CC1 [Compound 13, N-(18-Nitroxyoctadecyl)-6-(4-methyl-1-piperazinyl)pyridine-3-carboxamide] | No abnormalities were observed in general behaviors |  |  | 
10 | Non | CN1CCN(c2ccc(C(=O)NCCCCCCCCCCCCCCCCO[N+](=O)[O-])cn2)CC1 [Compound 9, N-(16-Nitroxyhexadecyl)-6-(4-methyl-1-piperazinyl)pyridine-3-carboxamide] | No abnormalities were observed in general behaviors | 72% |  | Inhibitory rate of cerebral edema [6]: 33.3%
11 | Non | CCN1CCN(c2ccc(C(=O)NCCCCCCCCCCCCCCCCO[N+](=O)[O-])cn2)CC1 [Compound 10, N-(16-Nitroxyhexadecyl)-6-(4-ethyl-1-piperazinyl)pyridine-3-carboxamide] | No abnormalities were observed in general behaviors |  | 1.7 | 
12 | Non | CCCN1CCN(c2ccc(C(=O)NCCCCCCCCCCCCCCO[N+](=O)[O-])cn2)CC1 [Compound 7, N-(14-Nitroxytetradecyl)-6-(4-propyl-1-piperazinyl)pyridine-3-carboxamide] | No abnormalities were observed in general behaviors |  |  | 
13 | Non | CC(C)N1CCN(c2ccc(C(=O)NCCCCCCCCCCCCCCO[N+](=O)[O-])cn2)CC1 [Compound 8, N-(14-Nitroxytetradecyl)-6-(4-isopropyl-1-piperazinyl)pyridine-3-carboxamide] | No abnormalities were observed in general behaviors | 70% |  | 
